Data published in patent publication US20040097421A1 (priority 2000, published 2004).
Counter-ions that a name gives are not always drawn. Like-named read-outs stand apart in the source and are kept apart here.

Legend:
[1] = system: panel of ten human tumour cell lines; assay type: cell-based
sarcoma 45 = conditions: rats; cited from earlier work
[2] = system: NSC Lung cancer tumor cell system; experiment: Cytotoxic activity in different tumor models, NSC lung cancer; assay type: cell-based, human; conditions: Number 8
[3] = system: Breast cancer tumor cell system; experiment: Cytotoxic activity in different tumor models, breast cancer; assay type: cell-based, human; conditions: Number 4
[4] = system: Ovarian carcinoma tumor cell system; experiment: Cytotoxic activity in different tumor models, ovarian carcinoma; assay type: cell-based, human; conditions: Number 8
[5] = system: 27 PHTC samples from 9 patients with hematological and 18 patients with solid tumours; experiment: Circumvention of melphalan resistance, FMCA classification of PHTC samples; assay type: cell-based, human; conditions: 4 μM
[6] = system: Prostate cancer tumor cell system; experiment: Cytotoxic activity in different tumor models, prostate cancer; assay type: cell-based, human; conditions: Number 1
[7] = system: solid tumors, primary cultures of human tumor cells from patients (PHTC); assay type: cell-based
[8] = system: solid tumour types, cell lines and primary cultures of human tumour cells from patients; experiment: Tumour type specific spectrum of antitumour activity, solid tumour types; assay type: cell-based; conditions: for Activity in the listed diagnoses of Table 5: 4.0 μM; for Activity against solid tumour types (activity = at least 50% reduction in tumour cell survival): cell lines and PHTC
[9] = system: Adenocarcinoma tumor cell system; experiment: Cytotoxic activity in different tumor models, adenocarcinoma; assay type: cell-based, human; conditions: Number 5
[10] = system: hematological tumors, primary cultures of human tumor cells from patients (PHTC); assay type: cell-based
[11] = system: H69AR (doxorubicin resistance subline); assay type: cell-based, human
[12] = system: Corpus cancer tumor cell system; experiment: Cytotoxic activity in different tumor models, corpus cancer; assay type: cell-based, human; conditions: Number 4
[13] = system: fresh human tumour specimens (fourteen hematological, thirteen solid); experiment: FMCA, IC50 comparison in 27 fresh human tumour specimens; assay type: cell-based; conditions: 27 human tumour samples, 82 to 0.131 μM
[14] = system: solid fresh human tumour specimens (PHTC); assay type: cell-based
[15] = system: hematological fresh human tumour specimens (PHTC); assay type: cell-based
[16] = system: NCI-H611 (non-small cell lung cancer); experiment: cells; assay type: cell-based; conditions: Homo sapiens, read-out: IC50 (μM), NCI-H611
[17] = system: U1906L (small cell lung cancer); experiment: cells; assay type: cell-based; conditions: Homo sapiens, read-out: IC50 (μM), U1906L
[18] = system: U-1906E (small cell lung cancer); experiment: cells; assay type: cell-based; conditions: Homo sapiens, read-out: IC50 (μM), U-1906E
[19] = system: U1690 (small cell lung cancer); experiment: cells; assay type: cell-based; conditions: Homo sapiens, read-out: IC50 (μM), U1690
[20] = system: U-1568 (non-small cell lung cancer); experiment: cells; assay type: cell-based; conditions: Homo sapiens, read-out: IC50 (μM), U-1568
[21] = system: U1285 (small cell lung cancer); experiment: cells; assay type: cell-based; conditions: Homo sapiens, read-out: IC50 (μM), U1285
[22] = system: U-1752 (non-small cell lung cancer); experiment: cells; assay type: cell-based; conditions: Homo sapiens, read-out: IC50 (μM), U-1752
[23] = system: 8226S (myeloma RPMI 8226); experiment: cells; assay type: cell-based, human; conditions: read-out: IC50 (μM), 8226S
[24] = system: CEM/S (leukemia CCRF-CEM); experiment: cells; assay type: cell-based; conditions: Homo sapiens, 72 h, read-out: IC50 (μM), CEM/S
[25] = system: mitochondria from rat liver homogenates and Jensen sarcoma cells; conditions: cited from earlier work

CCOC(=O)[C@H](Cc1ccccc1)NC(=O)[C@@H](N)Cc1ccc(N(CCCl)CCCl)cc1.Cl [JV22, L-Melphalanyl-L-phenylalanine ethyl ester hydrochloride]
IC50 (μM), MEAN [1]: 0.48 µM

CCOC(=O)[C@H](CC(C)C)NC(=O)[C@H](Cc1ccc(N(CCCl)CCCl)cc1)NC(C)=O [asaley]
Sarcoma 45 growth (sarcoma 45): inhibited

CC(C)OC(=O)[C@H](Cc1ccc(F)cc1)NC(=O)[C@@H](N)Cc1ccc(N(CCCl)CCCl)cc1.Cl [JV28, L-Melphalanyl-L-p-fluorophenylalanine isopropyl ester hydrochloride]
Median response at 4.0 μM >50% reduction in tumor cell survival [2]: Yes
Median response at 4.0 μM >50% reduction in tumor cell survival [3]: Yes
Median response at 4.0 μM >50% reduction in tumor cell survival [4]: Yes
Number of samples classified EDR (extreme drug resistance) [5]: 1
Number of samples classified IDR (intermediate drug resistance) [5]: 2
Samples classified EDR (%) [5]: 6%
Median response at 4.0 μM >50% reduction in tumor cell survival [6]: Yes
Activity against solid tumor samples compared to melphalan, sarcolysine and P2 [7]: more active
Activity in the listed diagnoses of Table 5 [8]: active in most of these diagnoses
Activity against solid tumour types (activity = at least 50% reduction in tumour cell survival) [8]: showed activity against several types of solid tumours
Median response at 4.0 μM >50% reduction in tumor cell survival [9]: Yes
Activity against hematological PHTC samples compared to melphalan and sarcolysine [10]: more active

CCOC(=O)[C@H](Cc1ccc(F)cc1)NC(=O)[C@@H](N)Cc1ccc(N(CCCl)CCCl)cc1.Cl [Example J1, L-Melphalanyl-L-p-fluorophenylalanine ethyl ester hydrochloride]
IC50 [11]: 0.9 µM
Median response at 4.0 μM >50% reduction in tumor cell survival [2]: Yes
Median response at 4.0 μM >50% reduction in tumor cell survival [3]: Yes
Median response at 4.0 μM >50% reduction in tumor cell survival [4]: Yes
Number of samples classified EDR (extreme drug resistance) [5]: 1
Number of samples classified IDR (intermediate drug resistance) [5]: 3
Samples classified EDR (%) [5]: 6%
Median response at 4.0 μM >50% reduction in tumor cell survival [12]: No
Activity in the listed diagnoses of Table 5 [8]: active in most of these diagnoses
Activity against solid tumour types (activity = at least 50% reduction in tumour cell survival) [8]: showed activity against several types of solid tumours
Median response at 4.0 μM >50% reduction in tumor cell survival [9]: Yes
Comparison of IC50s (FIG. 2) [13]: in all cases was more active than P2

COc1cc([C@@H]2c3cc4c(cc3[C@@H](O[C@@H]3O[C@@H]5CO[C@@H](C)O[C@H]5[C@H](O)[C@H]3O)[C@H]3COC(=O)[C@H]23)OCO4)cc(OC)c1O [Etoposide, etoposide]
Tumor cell survival index %, Solid (n = 22) [14]: 81%
Tumor cell survival index %, Hematological (n = 42) [15]: 47%

CCOC(=O)[C@H](Cc1ccc(O)cc1)NC(=O)[C@H](Cc1ccc(N(CCCl)CCCl)cc1)NC(C)=O [astyron, N-acetyl-L-melphalanyl-L-tyrosine ethyl ester]
Sarcoma 45 growth (sarcoma 45): inhibited

CC(=O)O[C@@]12CO[C@@H]1C[C@H](O)[C@@]1(C)C(=O)[C@H](O)C3=C(C)[C@@H](OC(=O)[C@H](O)[C@@H](NC(=O)OC(C)(C)C)c4ccccc4)C[C@@](O)([C@@H](OC(=O)c4ccccc4)[C@H]21)C3(C)C [Docetaxel, docetaxel]
Tumor cell survival index %, Solid (n = 22) [14]: 67%
IC50 [16]: 1.1 µM
IC50 [17]: 0.1 µM
IC50 [18]: 0.1 µM
IC50 [19]: 7.7 µM
IC50 [20]: 5.94 µM
IC50 [21]: 0.1 µM
IC50 [22]: 0.46 µM

N.N.[Cl][Pt][Cl] [Cisplatin, cisplatin]
IC50 (μM), MEAN [1]: 18.0 µM

CCC1=C[C@@H]2CN(C1)Cc1c([nH]c3ccccc13)[C@@](C(=O)OC)(c1cc3c(cc1OC)N(C)[C@H]1[C@@](O)(C(=O)OC)[C@H](OC(C)=O)[C@]4(CC)C=CCN5CC[C@]31[C@@H]54)C2 [Vinorelbine, vinorelbine]
Tumor cell survival index %, Solid (n = 22) [14]: 73%
Tumor cell survival index %, Hematological (n = 42) [15]: 50%

COc1cccc2c1C(=O)c1c(O)c3c(c(O)c1C2=O)C[C@@](O)(C(=O)CO)C[C@@H]3O[C@H]1C[C@H](N)[C@H](O)[C@H](C)O1 [Doxorubicin, doxorubicin]
Tumor cell survival index %, Solid (n = 22) [14]: 97%
IC50 ([23]; Homo sapiens, RPMI-8226, 72 h): 0.13 µM
IC50 [16]: ≥ 183 µM
IC50 [17]: 0.92 µM
IC50 [18]: 0.44 µM
IC50 [19]: 2.21 µM
IC50 [20]: ≥ 183 µM
IC50 [21]: 0.52 µM
IC50 [24]: 0.18 µM
Tumor cell survival index %, Hematological (n = 42) [15]: 29%
IC50 [22]: 0.42 µM
IC50 (μM), MEAN [1]: 3.51 µM

CC(C)[C@H](NC(=O)[C@@H](N)Cc1ccc(N(CCCl)CCCl)cc1)C(=O)O [salin, L-melphalanyl-L-valine]
Oxidative phosphorylation in mitochondria [25]: disrupted

CCOC(=O)[C@H](Cc1ccc(O)cc1)NC(=O)[C@@H](N)Cc1ccc(N(CCCl)CCCl)cc1.Cl [JV24, L-Melphalanyl-L-tyrosine ethyl ester hydrochloride]
IC50 (μM), MEAN [1]: 1.05 µM

Nc1ccn([C@@H]2O[C@H](CO)[C@@H](O)[C@@H]2O)c(=O)n1 [AraC]
Tumor cell survival index %, Solid (n = 22) [14]: 102%

CCOC(=O)[C@H](Cc1ccc(F)cc1)NC(=O)[C@H](Cc1ccc(N(CCCl)CCCl)cc1)NC(=O)[C@@H]1CCCN1.Cl [Example J3, L-Prolinyl-L-melphalanyl-L-p-fluorophenylalanine ethyl ester hydrochloride]
Median response at 4.0 μM >50% reduction in tumor cell survival [2]: Yes
Median response at 4.0 μM >50% reduction in tumor cell survival [3]: Yes
Median response at 4.0 μM >50% reduction in tumor cell survival [4]: Yes
Number of samples classified EDR (extreme drug resistance) [5]: 0 (0%)
Number of samples classified IDR (intermediate drug resistance) [5]: 4
Samples classified EDR (%) [5]: 0 (0%)
Median response at 4.0 μM >50% reduction in tumor cell survival [6]: Yes
Activity against solid tumor samples compared to melphalan, sarcolysine and P2 [7]: more active
Median response at 4.0 μM >50% reduction in tumor cell survival [12]: Yes
Activity in the listed diagnoses of Table 5 [8]: active
Activity against solid tumour types (activity = at least 50% reduction in tumour cell survival) [8]: showed activity against several types of solid tumours
Median response at 4.0 μM >50% reduction in tumor cell survival [9]: Yes
Activity against hematological PHTC samples compared to melphalan and sarcolysine [10]: more active
Tumor cell survival index (%), Hematological tumors n = 7-11 [10]: 7%

CC[C@]1(O)C[C@H]2CN(CCc3c([nH]c4ccccc34)[C@@](C(=O)OC)(c3cc4c(cc3OC)N(C=O)[C@H]3[C@@](O)(C(=O)OC)[C@H](OC(C)=O)[C@]5(CC)C=CCN6CC[C@]43[C@@H]65)C2)C1 [Vincristine, vincristine]
Tumor cell survival index %, Solid (n = 22) [14]: 93%
IC50 ([23]; Homo sapiens, RPMI-8226, 72 h): 0.01 µM
IC50 [24]: 0.08 µM
Tumor cell survival index %, Hematological (n = 42) [15]: 39%
IC50 (μM), MEAN [1]: 30.1 µM

CCOC(=O)[C@H](Cc1ccc(N(CCCl)CCCl)cc1)NC(=O)[C@@H](N)Cc1ccc(N(CCCl)CCCl)cc1 [JV27, L-Melphalanyl-L-melphalan ethyl ester hydrochloride]
IC50 [23]: 1.01 µM
